Measured values as given in a melting point compilation (Tetko et al.; mined from patent text by program, amines drawn as free bases though some values may be those of a salt).

SMILES | melting point [°C]
CC(=O)N1N=C(c2ccc(N)c(C)c2)c2cc(Cl)ccc2C=C1C | 209 to 211
CC1Nc2ccc(Cl)c3cccc(c23)S1(=O)=O (stereo not drawn) | 150
O=C(NO)[C@H](CNS(=O)(=O)c1ccc(OCc2ccc(F)cc2)cc1)N1CCCCC1 | 140
CC(=O)NC[C@H]1CN(c2ccc(N3CCC(n4nnnc4CS(C)(=O)=O)CC3)c(F)c2)C(=O)O1 | 192
C#CC1(O)C(CO)OC(n2ccc(=O)[nH]c2=O)C1O (stereo not drawn) | 226 to 228
COC(=O)NN[C@@H]1c2cc(C#N)ccc2OC(C)(C)[C@H]1O (relative stereo) | 174 to 175
O=C(NCCO)C1CCNCC1 | 107 to 108
CCOc1cc(CCl)nc(OCC)n1 | 38 to 39
CCOC(=O)c1c(/C=C/c2nccn2C)nc2cc(OC)c(OC)cc2c1-c1ccc(OC)c(OC)c1 | 206 to 208
CCOC(=O)c1cn(C2CC2)c2c(CSCC)c(N3CCOCC3)c(F)cc2c1=O | 165 to 167
CS(=O)(=O)N(CCO)c1c(Cl)c(C(F)(F)F)cc2[nH]c(=O)c(=O)[nH]c12 | 292 to 294
CCCNC(=O)c1cncs1 | 86
CCCCCCCCCCCCCCC(COC(C)=O)(COC(C)=O)NC(C)=O | 84 to 85.5
C#CCN1C(=O)COc2cc(-c3ncc(C(F)(F)F)c(C)c3Cl)c(F)cc21 | 156 to 157
CCOC(=O)[C@H](CCc1ccccc1)NC(=O)C1(NC(=O)[C@@H](SC(C)=O)C2CCOCC2)CCCC1 | 107 to 111
C=CCOc1cc2c(cc1C)OC1(CC(C)(C)c3cc(O)c(C)cc3O1)CC2(C)C (stereo not drawn) | 143 to 144
O=C(O)CCCNC(=O)n1cc(F)c(=O)[nH]c1=O | 146 to 147
CC(C)(C)OC(=O)c1ncn2c1CN=C(c1ccccc1)c1cc(Br)ccc1-2 | 222 to 223
CCOC(=O)c1c[nH]c2cc(F)c(OC)cc2c1=O | 280
CCN(CCc1c[nH]c2ccc(F)cc12)C1COc2c(F)ccc(C(N)=O)c2C1 (stereo not drawn) | 127
O=C(O)[C@@H]1CCc2cc(F)ccc2O1 | 99.7
O=[N+]([O-])c1ccc2nc(N3CCNCC3)ccc2c1 | 153
CC(C)(C)OC(=O)C1CCN(C(=O)C2CN(c3ccc(-c4noc(=O)[nH]4)cc3)C(=O)O2)CC1 (stereo not drawn) | 171 to 175
O=C(Nc1ccc(Oc2cc(Cl)ncn2)cc1)Nc1ccc(Cl)c(C(F)(F)F)c1 | 180 to 181
CNN(NC)C(=S)Oc1cc(C)ccc1C(=O)OC | 99.9 to 100

SMILES | melting point [°C]
COC1=NC(=O)N(C)S(=O)(=O)N1 | 195 to 199
Cc1c(CNS(=O)(=O)c2ccc(C(F)(F)F)cc2)nn(-c2ccc(Cl)cc2Cl)c1-c1ccc(Br)cc1 | 195
O=C(O)C1=Cc2cc(Oc3ccc(C(F)(F)F)cc3)cc(Cl)c2OC1C(F)(F)F (stereo not drawn) | 224 to 226
CCCc1c(OCCCCCC(=O)c2ccc(O)c(O)c2)ccc(C(=O)O)c1O | 188 to 191
Cc1nc[nH]c1CSCCNC(=O)NCCSCc1[nH]cnc1C | 225 to 228
CCOC(=O)C1CCC(c2ccc(OCC(=O)O)c(Cl)c2Cl)=CC1=O (stereo not drawn) | 193 to 195
CCN1CC(NC(=O)c2ccc(OCC=C(C)CCC=C(C)C)cc2)CN1CC | 95.5 to 97
CCOP(=O)(OCC)c1nc(N(CC)CC)nc(N(CC)CC)n1 | 45 to 46
CS(=O)(=O)c1ccc(OC2SCC(O)C(O)C2O)cc1 (stereo not drawn) | 180
CCCC(=O)NCCc1ccc(S(=O)(=O)N2CCN(C3CCCCC3)C2=N)s1 | 121 to 125
CCCn1nc(C(N)=O)cc1CC(C)C | 141 to 142
CC(C)c1nc2c(c(-c3ccc(F)cc3)c1C(C)O)CCC2(C)C (stereo not drawn) | 90 to 92
CCCCCCCCS(=O)(=O)CC(CS(=O)(=O)c1ccc(OC)cc1)C(=O)NO (stereo not drawn) | 134
CNc1nc(SC)ncc1CO | 155 to 157
CCOC(=O)Nc1cc([N+](=O)[O-])cc(CC)c1C(=O)O | 121 to 123
O=C(Nc1ccccc1)Nc1cc(Cl)nc(Cl)c1 | 219 to 222
O=C1NC(=O)C(Cc2cccs2)N1 (stereo not drawn) | 188 to 190
CC(Oc1ncn(-c2cccc(Br)c2)n1)C(N)=O (stereo not drawn) | 141 to 144
O=C1Nc2cccc(F)c2C(=O)N2CC=C[C@@H]12 | 238 to 240
Nc1ccc(OC(F)(F)C(F)F)cc1[N+](=O)[O-] | 83.9 to 84.4
CC(=O)N1CCN(c2cc3nc(C(C)(C)C)sc3cc2[N+](=O)[O-])CC1 | 166 to 168
O=C1N=C(N2CCOCC2)SC1c1cncc(-c2cc3c(c(C45CC6CC(CC(C6)C4)C5)c2)OCO3)c1 (stereo not drawn) | 255 to 258
CCC(=O)NCCC1=CCc2cnc3c(c21)CCO3 | 111 to 112
O=c1oc2cccnc2n1CN1CCN(c2cccc(C(F)(F)F)c2)CC1 | 112 to 118

Now from value to molecule:

melting point [°C] | SMILES
130 | N#CCCCN1CCC(Nc2nc3ccccc3n2Cc2ccc(F)cc2)CC1
178 to 181 | COc1ccc(Cn2nnc(C3=C(O)c4ccccc4S(=O)(=O)N3C)n2)cc1
193 to 195 | CC1CCCN1CCCOc1ccc2c(c1)CCC1CC(=O)NN=C21 (stereo not drawn)
257 to 258 | COc1cc(OC)c2cc(-c3ccccc3)c(=O)[nH]c2c1
163 | Cc1cccc(NC(=O)NCC(=O)N(CC(=O)N(C)c2ccc(F)c(F)c2)c2ccccc2)c1
210 to 211 | CC(=O)C1=C(O)c2c(c3ccccc3n2C)S(=O)(=O)N1
116 | CCCCN(CCCC)CCOc1ccc(C(=O)c2c(CC)cc3ccccn23)cc1
134 to 136 | CCC(Oc1c(C)cc(C)cc1C)C(=O)OC1CC(O)C=C2C=CC(C)C(CCC3CC(O)CC(=O)O3)C21 (mixture of isomers)
232 to 234 | Oc1ccc2c(-c3nc4cc(O)ccc4o3)cccc2c1
143 to 144 | CC(C)OC(=O)c1ccccc1SN(C(=O)NC(=O)c1ccccc1Cl)c1ccc(OC(F)(F)F)cc1
225 | Cc1nc2cccc(S(=O)(=O)n3c(CCCC(=O)O)cc4nc(Cl)ccc43)c2s1
238 | CCCN1Cc2cc(Oc3cccc(NCc4c(C)cc(C)cc4C)c3)ccc2N=C1N
154 to 155 | CCOC(=O)c1c(CN(CC)CC)nc2sc3c(c2c1-c1ccc(OC)c(OC)c1)CCN(C(=O)Nc1ccccc1)C3
93 to 94 | CCOc1ccc(-c2ccc(Cl)nn2)c(OCC2CO2)c1 (stereo not drawn)
126 to 127 | COc1cc(COc2nn(-c3ccccc3)cc2C=O)ccc1OCc1nc(-c2ccccc2)cn1C
305 to 307 | C(=Cc1cc2cc3ccccc3cc2s1)c1ccccc1
131 to 132 | O=C(c1ccc(F)nc1)N1CCC[C@H](c2nc(-c3ccc[nH]3)no2)C1
135 to 136 | COC(=O)C1=C(C=O)NC(C)=C(P2(=O)OCCCO2)C1c1ccccc1[N+](=O)[O-] (stereo not drawn)
163 to 165 | Cn1ncc(NCCCN2CCC(c3noc4cc(F)ccc34)CC2)cc1=O
286 to 288 | CONC1=NC(=O)C(=Cc2cccc(-c3cc(F)c(O)c(C45CC6CC(CC(C6)C4)C5)c3)c2)S1
156 | Cc1nccc2c3ccc(OCc4ccccc4)cc3n(Cc3ccccc3)c12
187 to 192 | Cc1ccc2c(c1)C(c1ccncc1)CC2(O)c1ccc(F)cc1 (stereo not drawn)
92 to 94 | OCCCCCCOc1ccc(-c2ccccc2)cc1
250 to 254 | Clc1ccc(Oc2cncc3sc(-c4nnn[nH]4)cc23)cc1
150 to 153 | Cc1cc2c(Cl)c3ccccc3c(C=O)c2cc1C

melting point [°C] | SMILES
225 | CCOC(=O)C1=C(C)Nc2ccn(C)c(=O)c2C1c1ccccc1OC (stereo not drawn)
211 to 214 | O=C1c2ccccc2C(=O)N1CCCc1cn(C(c2ccccc2)(c2ccccc2)c2ccccc2)cn1
172 | CCCCOc1ccc(Cl)cc1C(=O)NCc1ccc(CC(=O)O)cc1
214 to 215 | Cc1ccc(C(=O)Nc2c(NC(=O)CN3CCN(C)CC3)ccc3c2C(=O)c2ccccc2C3=O)cc1
68 to 69 | Cc1cc(C)cc(OCC(=O)c2ccc(C(C)C)cc2)c1
206 to 208 | CC(C)=NOCc1nc2c(N)nc(C)c(C)c2n1CCCCNC(=O)c1ccccc1
70 to 72 | CCCCCCCCCCCCC1=C(OC(=O)OC)C(=O)c2ccccc2C1=O
165 to 166 | Cc1nnc(-c2ccc3occ(-c4cnn(Cc5ccccc5C(F)(F)F)c4)c3c2)o1
239 to 243 | CSc1ccn2nc(S(=O)(=O)Nc3c(Cl)cccc3Cl)nc2n1
157 to 159 | CCCCc1nc2c(N)nc3ccccc3c2n1CCCC(C)=NOC
253 to 255 | CCn1nc2c(N)nc3ccccc3c2c1CC1(O)CCOCC1
177 to 178 | C#CCOc1ccc(/C=C/c2nc3ccccc3c(=O)o2)cc1OC
273 to 275 | Cc1ccc(NC(=O)NCc2ccc3c(c2)CN(C2CCC(=O)NC2=O)C3=O)cc1O (stereo not drawn)
148 | CCOC(=O)C1=C(C)NC(C)=C(C(=O)OC(C)C)C1c1cccc([N+](=O)[O-])c1 (stereo not drawn)
149 to 151 | CCOC(=O)C(=Cc1cc(C(=O)OCC)c(=O)n2ccccc12)C(=O)OCC
149 to 150 | CC(C)(CO)NC(=O)c1cccc(-c2cccc3cc(Cc4cc(F)cc(Cl)c4)sc23)c1
102 to 104 | COc1ccc(CN(CCN(C)CCNC(=C[N+](=O)[O-])NCCCOc2cccc(CN3CCCCC3)c2)c2ccccn2)cc1
130 to 131 | CC(C)C[C@H](NC(=O)OCc1ccccc1)C(=O)N[C@H]1CCOC1=O
170 to 172 | Cc1cccc(-c2sc(N)nc2-c2ccc3c(c2)OCO3)n1
146 to 152 | Cn1c(SCCCN2CCc3ccc(C(=O)c4ccccc4)cc3C2)nnc1-c1ccccc1
110 to 112 | CCCN1N=C2C(=Cc3ccccc3C)CSCC2C1c1ccccc1C (stereo not drawn)
88 | COc1ccc2c(C)c(C)oc2c1C=O
168 to 169 | c1ccc(N2CCN(c3nc4cccc5c4n3CCC5)CC2)cc1
160 | O=C(c1ccc(F)cc1)C1CCN(CCCn2c(=O)[nH]c3cc(C(F)(F)F)ccc32)CC1
